# Source: patent US20170226552A1, “METHODS FOR MODULATING PROTEIN GLY[…] OF R[…] THERAPEUTICS USING COBALT” (AbbVie Inc., priority 2014, published 2017)
# Legend:
# Type in all cases: cell-based, Chinese Hamster
# [1] = tested on: Cell Line 2 (CHO cell line expressing DVD1); test: Cell Line 2 shake flask fedbatch culture: harvest titer of DVD 1 (Poros A HPLC)
# Protocol: (§1) Two recombinant Chinese Hamster Ovary (CHO) cell lines expressing two different recombinant glycoproteins were evaluated in 2 different culture vessels (shaker flasks and 3 L laboratory scale bioreactors). Cell Line 1 expressed humanized Antibody 1, and Cell Line 2 expressed Dual Variable Domain Immunoglobulin 1 (DVD1). Antibody 1 was an IgG1 glycoprotein, and DVD1 was an immunoglobulin glycoprotein with two variable domains as documented previously (Wu C. et al., (2007) Nat Biotechnol 25(11):1290-7).
# (§2) Both cells lines were of CHO DUX-B11 origin based on a dhfr (dihydrofolate reductase) expression system. All cultures utilized the same chemically defined basal media (CDBM), and chemically-defined feed media (CDFM), except Cell Linel utilized a CDFM that was enriched at a 50% higher relative concentration. Each of the experimental conditions were supplemented with cobalt chloride (Sigma-Aldrich, St. Louis, Mo.) to evaluate its potential impact on the resulting N-glycan oligosaccharide profile. In preparation of the cultures, the cell lines were expanded through separate seed train inoculums to generate enough cell biomass for inoculation of multiple cultures. Process conditions utilized during the cultures were similar between each experimental condition and the respective non-cobalt supplemented control condition (Table 1).
# (§3) Antibody titers were measured from crude cell culture harvests on a Poros A™ (Life Technologies, Carlsbad, Calif.) affinity column using an HPLC system operating with a low pH, step elution gradient with detection at 280 nm. Absolute concentrations were assigned with respect to reference standard calibration curves.
# [2] = tested on: Cell Line 2 (CHO cell line expressing DVD1); test: Cell Line 2 shake flask fedbatch culture: N-glycan oligosaccharide profile of DVD1
# Protocol: as §1, §2
# Purified antibodies subjected to additional analytical characterization were purified using MabSelect™ Protein A (GE Healthcare, Piscataway, N.J.) using a low pH, step elution gradient, followed by buffer exchange using Spin Concentrator X UF columns (Corning Lifesciences, Tewksbury, Mass.), or equivalent, according to the manufacturer's recommended procedure.
# Approximately 200 μg of Protein A purified samples from Cell Lines 1 and 2 were treated with N-glycanase at 37° C. for an overnight duration to remove the N-glycans from the protein. The protein was precipitated and the supernatant was taken for subsequent chemical derivatization of the reducing end of the released glycans with 2-aminobenzamide (2-AB) dye. Following the derivatization step, the excess dye was removed using clean up cartridges and the samples were analyzed using normal phase HPLC with fluorescent detection. Mobile phase A was 100% acetonitrile and mobile phase B was 50 mM ammonium formate at pH 4.4. The glycans were eluted from a polyamide column (Prozyme, Hayward, Calif.) using a shallow gradient. The labeled glycans were detected using a fluorescence detector with an excitation wavelength of 330 nm and an emission wavelength of 420 nm.
# [3] = tested on: Cell Line 2 (CHO cell line expressing DVD1); test: Cell Line 2 shake flask fedbatch culture: viable cell density and cell viability (trypan blue exclusion)
# Protocol: as §1, §2
# (§4) Viable cell density (VCD) and cell viability values were measured through trypan blue exclusion via Cedex automated cell counters (Roche Applied Science, Indianapolis, Ind.), glucose and lactate values were measured with a ABL-805 (Radiometer Medical, Denmark) blood gas analyzer. Offline pH, dissolved oxygen (DO), and pCO2 measurements were also performed with a ABL-805 (Radiometer Medical, Denmark) blood gas analyzer. Osmolality was measured on a Multi-Osmette 2430 osmometer (Precision Systems, Natick, Mass.).
# [4] = tested on: Cell Line 1 (CHO cell line expressing Antibody 1); test: Cell Line 1 shake flask fedbatch culture: N-glycan oligosaccharide profile of Antibody 1
# Protocol: as §1
# as §2, with “1). […]” for “1).”
# (§5) Approximately 200 μg of Protein A purified samples from Cell Lines 1 and 2 were treated with N-glycanase at 37° C. for an overnight duration to remove the N-glycans from the protein. […] Following the derivatization step, the excess dye was removed using clean up cartridges and the samples were analyzed using normal phase HPLC with fluorescent detection. […] The labeled glycans were detected using a fluorescence detector with an excitation wavelength of 330 nm and an emission wavelength of 420 nm.
# [5] = tested on: Cell Line 1 (CHO cell line expressing Antibody 1); test: Cell Line 1 shake flask fedbatch culture: harvest titer of Antibody 1 (Poros A HPLC)
# Protocol: as §1, §2, §3
# [6] = tested on: Cell Line 1 (CHO cell line expressing Antibody 1); test: Cell Line 1 3 L laboratory-scale bioreactor culture: cell culture performance (VCD, viability, glucose, lactate, osmolality); conditions: Cell Line 1, 3 L bioreactor, 50 μM CoCl2
# Protocol: as §1, §2, §4
# 3 L scale-down model bioreactors were utilized to verify the impact of CoCl2 on the resulting protein glycosylation profiles in Cell Line 1. Cell culture process performance indicators were monitored and measured throughout the respective cultures. Viable cell density, cell viability, harvest titer, and harvest N-glycan oligosaccharide data was measured and reported. FIG. 4 highlights the cell culture performance results observed through the use of 50 μM CoCl2 targeted supplementation into the CDBM and CDFM. Similar to the shake flask results, there was a modest drop in the viable cell density profile (FIG. 4A), but no change in the viability profile in the 50 μM CoCl2 supplemented culture (FIG. 4B). […] Similar to the shake flask results using 50 μM CoCl2, there was a nominal drop in the final harvest titer with the cobalt supplemented culture achieving a final harvest titer 10% below that of the unsupplemented control (FIG. 4F).
# [7] = tested on: Cell Line 1 (CHO cell line expressing Antibody 1); test: Cell Line 1 shake flask fedbatch culture: viable cell density and cell viability (trypan blue exclusion)
# Protocol: as §1, §2, §4
# [8] = tested on: Cell Line 1 (CHO cell line expressing Antibody 1); test: Cell Line 1 3 L laboratory-scale bioreactor culture: harvest titer of Antibody 1; conditions: Cell Line 1, 3 L bioreactor, 50 μM CoCl2
# Protocol: as §1
# (§6) Both cells lines were of CHO DUX-B11 origin based on a dhfr (dihydrofolate reductase) expression system. […]
# Antibody titers were measured from crude cell culture harvests on a Poros A™ (Life Technologies, Carlsbad, Calif.) affinity column using an HPLC system operating with a low pH, step elution gradient with detection at 280 nm. […]
# 3 L scale-down model bioreactors were utilized to verify the impact of CoCl2 on the resulting protein glycosylation profiles in Cell Line 1. Cell culture process performance indicators were monitored and measured throughout the respective cultures. Viable cell density, cell viability, harvest titer, and harvest N-glycan oligosaccharide data was measured and reported. […]
# [9] = tested on: Cell Line 1 (CHO cell line expressing Antibody 1); test: Cell Line 1 3 L laboratory-scale bioreactor culture: N-glycan oligosaccharide profile of Antibody 1
# Protocol: as §1, §6, §5
# 3 L scale-down model bioreactors were utilized to verify the impact of CoCl2 on the resulting protein glycosylation profiles in Cell Line 1. Cell culture process performance indicators were monitored and measured throughout the respective cultures. […]
# [10] = Cell Line 2, shake flask, 100 μM cobalt
# [11] = Cell Line 2, shake flask, 1-100 μM CoCl2
compound,measurement,setting,value
"[Cl-].[Cl-].[Co+2] [CoCl2, cobalt (II) chloride]",concentration up to which there was a negligible impact on recombinant protein productivity,[1]; Cell Line 2,5 µM
same,decrease in productivity (harvest titer of DVD 1) vs control,"[1]; Cell Line 2, shake flask, 25 μM cobalt",20%
same,decrease in productivity (harvest titer of DVD 1) vs control,"[1]; Cell Line 2, shake flask, 50 μM cobalt",35%
same,decrease in productivity (harvest titer of DVD 1) vs control,[1]; [10],47%
same,impact on recombinant antibody productivity (harvest titer of DVD 1),"[1]; Cell Line 2, shake flask, 1 and 5 μM cobalt",negligible impact
same,increase in NA1F glycans vs unsupplemented control,[2]; [10],6.2%
same,change in relative abundance of NGA2F-GlcNAc vs unsupplemented control,[2]; [11],statistically significant decreases
same,change in relative abundance of high mannose glycans vs unsupplemented control,[2]; [11],statistically significant decreases
same,change in NA2F species vs unsupplemented control,"[2]; Cell Line 2, shake flask, 1-100 μM CoCl2, much lower relative amount than NA1F",increased
same,maximum absolute percentage increase in galactosylated N-glycans relative to the unsupplemented control,"[2]; Cell Line 2, shaker flask cultures",6%
same,concentration up to which there was a negligible impact on cell growth,[3]; Cell Line 2,25 µM
same,peak VCD compared to the control,"[3]; Cell Line 2, shake flask, 1, 5, and 25 μM",approximately similar
same,peak VCD,"[3]; Cell Line 2, shake flask, cobalt 50 μM in CDBM and CDFM",approximately 10.6×10^6 cells/mL
same,peak VCD,"[3]; Cell Line 2, shake flask, cobalt 100 μM in CDBM and CDFM",~6.7×10^6 cells/mL
same,cell viability over time and at harvest,"[3]; Cell Line 2, shake flask, higher cobalt media concentrations, after Day 6",higher cell viability
same,change in relative abundance of NGA2F-GlcNAc vs unsupplemented control,[4]; 1-100 μM CoCl2,statistically significant decreases
same,change in NA2F species vs unsupplemented control,"[4]; 1-100 μM CoCl2, much lower relative amount than NA1F",increased
same,change in NA1F species vs unsupplemented control,"[4]; concentration-dependent, 1-100 μM CoCl2",increase
same,concentration up to which there was a negligible impact on recombinant protein productivity,[5]; Cell Line 1,50 µM
same,drop in productivity (harvest titer of Antibody 1) vs control,"[5]; Cell Line 1, shake flask, 100 μM cobalt",21%
same,impact on recombinant antibody productivity (harvest titer of Antibody 1),"[5]; Cell Line 1, shake flask, 1, 5, 25, and 50 μM cobalt",negligible impact
same,glucose levels in the culture media vs unsupplemented control over time,[6],approximately similar
same,higher lactate concentration in culture media vs unsupplemented control,[6],≤ 0.5 g/L
same,osmolality levels vs unsupplemented control,[6],slightly elevated
same,viability profile vs unsupplemented control,[6],no change
same,viable cell density profile vs unsupplemented control,[6],modest drop
same,concentration up to which there was a negligible impact on cell growth,[7]; Cell Line 1,50 µM
same,peak VCD compared to the control,"[7]; Cell Line 1, shake flask, 1, 5, and 25 μM",approximately similar
same,peak VCD,"[7]; Cell Line 1, shake flask, cobalt 50 μM in CDBM and CDFM",approximately 9.4×10^6 cells/mL
same,peak VCD,"[7]; Cell Line 1, shake flask, cobalt 100 μM in CDBM and CDFM",~7.0×10^6 cells/mL
same,cell viability at harvest compared to the unsupplemented control,"[7]; Cell Line 1, shake flask, each cobalt concentration evaluated (1-100 μM), harvest Day 14",slightly higher cell viability
same,final harvest titer below that of the unsupplemented control,[8],10%
same,increase in NA1F species vs unsupplemented control,"[9]; Cell Line 1, 3 L bioreactor, 50 μM CoCl2",approximately 8%
same,maximum absolute percentage increase in galactosylated N-glycans relative to the unsupplemented control,"[9]; Cell Line 1, 3 L scale bioreactors",8%
